Test results taken from patent US20230145305A1, “COMPOUNDS USEFUL AS KINASE INHIBITORS” (Fochon Biosciences, Ltd., priority 2020, published 2023).

System: OCI-LY10 cells
Experiment: Cell proliferation assay (MTS) in OCI-LY10 cells
Assay type: cell-based
Conditions: Homo sapiens, OCI-Ly10, 72 h, read-out: OCI-LY10 IC50 (nM)
Source text: MTS testing kit was purchased from Promega (Madison, Wis., USA). The RPMI-1640, Fetal bovine serum and Penicillin-Streptomycin were purchased from BI (Biological Industries, Beit Haemek, Israel). Dimethyl sulfoxide (DMSO) was purchased from Sigma (St. Louis., Mo., USA). […] To investigate whether a compound is able to inhibit the activity of BTK in cells, a mechanism-based assay using OCI-LY10 cells was developed. In this assay, inhibition of BTK was detected by the inhibition of OCI-LY10 cells proliferation. Cells were plated into 96-well plates at a density of 10000 cells/well. Plates were incubated at 37° C., with 5% CO2 for 4 h. […] Plates were incubated at 37° C., with 5% CO2 for 72 h. 20 μl MTS was added into each well and the plates were incubated at 37° C., with 5% CO2 for exactly 2 h. The absorbance was measured by a microplate reader at 490 nm. IC50 was calculated using GraphPad Prism 5.0 software. Select compounds prepared as described above were assayed according to the biological procedures described herein.

SMILES | IC50
COc1ccc(F)cc1C(=O)NCc1ccc(-c2nn(C3CCCC3)c3c(=O)[nH]nc(N)c23)cc1F [Example 62, N-(4-(4-amino-1-cyclopentyl-7-oxo-6,7-dihydro-1H-pyrazolo[3,4-d]pyridazin-3-yl)-2-fluorobenzyl)-5-fluoro-2-methoxybenzamide] | 1 nM

Same assay, conditions: Homo sapiens; inhibition of OCI-LY10 cells proliferation, 72 h incubation, MTS, absorbance at 490 nm; read-out: OCI-LY10 IC50

SMILES | IC50
COc1ccc(F)cc1C(=O)NCc1ccc(-c2nn(C3CCCC3)c3c(=O)[nH]nc(N)c23)c(F)c1 [Example 63, N-(4-(4-amino-1-cyclopentyl-7-oxo-6,7-dihydro-1H-pyrazolo[3,4-d]pyridazin-3-yl)-3-fluorobenzyl)-5-fluoro-2-methoxybenzamide] | 1 nM
COc1ccc(F)cc1C(=O)NCc1ccc(-c2nn([C@H]3CCCC3(F)F)c3c(=O)[nH]nc(N)c23)cc1 [Example 64, (S)-N-(4-(4-amino-1-(2,2-difluorocyclopentyl)-7-oxo-6,7-dihydro-1H-pyrazolo[3,4-d]pyridazin-3-yl)benzyl)-5-fluoro-2-methoxybenzamide] | 1 nM
COc1ccc(F)cc1C(=O)NCc1ccc(-c2nn(C3CCC3)c3c(=O)[nH]nc(N)c23)cc1 [Example 65, N-(4-(4-amino-1-cyclobutyl-7-oxo-6,7-dihydro-1H-pyrazolo[3,4-d]pyridazin-3-yl)benzyl)-5-fluoro-2-methoxybenzamide] | 1 nM
COc1ccc(F)cc1C(=O)NCc1ccc(-c2nn(C(C)(C)C)c3c(=O)[nH]nc(N)c23)cc1 [Example 66, N-(4-(4-amino-1-(tert-butyl)-7-oxo-6,7-dihydro-1H-pyrazolo[3,4-d]pyridazin-3-yl)benzyl)-5-fluoro-2-methoxybenzamide] | 1 nM
CCC(C)n1nc(-c2ccc(CNC(=O)c3cc(F)ccc3OC)cc2)c2c(N)n[nH]c(=O)c21 (stereo not drawn) [Example 67, N-(4-(4-amino-1-(sec-butyl)-7-oxo-6,7-dihydro-1H-pyrazolo[3,4-d]pyridazin-3-yl)benzyl)-5-fluoro-2-methoxybenzamide] | 1 nM
COc1ccc(F)cc1C(=O)NCc1ccc(-c2nn(C(C)C)c3c(=O)[nH]nc(N)c23)cc1 [Example 68, N-(4-(4-amino-1-isopropyl-7-oxo-6,7-dihydro-1H-pyrazolo[3,4-d]pyridazin-3-yl)benzyl)-5-fluoro-2-methoxybenzamide] | 2 nM
COc1ccc(F)cc1C(=O)NCc1ccc(-c2nn(C(C)C(C)C)c3c(=O)[nH]nc(N)c23)cc1 (stereo not drawn) [Example 69, N-(4-(4-amino-1-(3-methylbutan-2-yl)-7-oxo-6,7-dihydro-1H-pyrazolo[3,4-d]pyridazin-3-yl)benzyl)-5-fluoro-2-methoxybenzamide] | 5 nM
COc1ccc(F)cc1C(=O)NCc1ccc(-c2nn(C(C)C(C)(C)C)c3c(=O)[nH]nc(N)c23)cc1 (stereo not drawn) [Example 70, N-(4-(4-amino-1-(3,3-dimethylbutan-2-yl)-7-oxo-6,7-dihydro-1H-pyrazolo[3,4-d]pyridazin-3-yl)benzyl)-5-fluoro-2-methoxybenzamide] | 1 nM
COc1ncc(F)cc1C(=O)NCc1ccc(-c2cn(C3CCCC3)c3c(=O)[nH]nc(N)c23)cc1 [Example 71, N-(4-(4-amino-1-cyclopentyl-7-oxo-6,7-dihydro-1H-pyrrolo[2,3-d]pyridazin-3-yl)benzyl)-5-fluoro-2-methoxynicotinamide] | 23 nM
COc1ccc(F)cc1C(=O)NCc1ccc(-c2nn([C@@H]3CCCC3(F)F)c3c(=O)[nH]nc(N)c23)cc1 [Example 72, (R)-N-(4-(4-amino-1-(2,2-difluorocyclopentyl)-7-oxo-6,7-dihydro-1H-pyrazolo[3,4-d]pyridazin-3-yl)benzyl)-5-fluoro-2-methoxybenzamide] | 1 nM
COc1ccc(F)cc1C(=O)NCc1ccc(-c2nn(C3(C)CCC3)c3c(=O)[nH]nc(N)c23)cc1 [Example 73, N-(4-(4-amino-1-(1-methylcyclobutyl)-7-oxo-6,7-dihydro-1H-pyrazolo[3,4-d]pyridazin-3-yl)benzyl)-5-fluoro-2-methoxybenzamide] | 1 nM
COc1ccc(F)cc1C(=O)NCc1ccc(-c2nn(C3(C)CC3)c3c(=O)[nH]nc(N)c23)cc1 [Example 74, N-(4-(4-amino-1-(1-methylcyclopropyl)-7-oxo-6,7-dihydro-1H-pyrazolo[3,4-d]pyridazin-3-yl)benzyl)-5-fluoro-2-methoxybenzamide] | 1 nM
COc1ccc(F)cc1C(=O)NCc1ccc(-c2nn(C(C)CF)c3c(=O)[nH]nc(N)c23)cc1 (stereo not drawn) [Example 75, N-(4-(4-amino-1-(1-fluoropropan-2-yl)-7-oxo-6,7-dihydro-1H-pyrazolo[3,4-d]pyridazin-3-yl)benzyl)-5-fluoro-2-methoxybenzamide] | 12 nM
COc1ccc(F)cc1C(=O)NCc1ccc(-c2nn(C(C)C(F)F)c3c(=O)[nH]nc(N)c23)cc1 (stereo not drawn) [Example 76, N-(4-(4-amino-1-(1,1-difluoropropan-2-yl)-7-oxo-6,7-dihydro-1H-pyrazolo [3,4-d]pyridazin-3-yl)benzyl)-5-fluoro-2-methoxybenzamide] | 1 nM
COc1ccc(F)cc1C(=O)NCc1ccc(-c2nn([C@H](C)C3CC3)c3c(=O)[nH]nc(N)c23)cc1 [Example 77a, (R)-N-(4-(4-amino-1-(1-cyclopropylethyl)-7-oxo-6,7-dihydro-1H-pyrazolo[3,4-d]pyridazin-3-yl)benzyl)-5-fluoro-2-methoxybenzamide] | 1 nM
COc1ccc(F)cc1C(=O)NCc1ccc(-c2nn([C@@H](C)C3CC3)c3c(=O)[nH]nc(N)c23)cc1 [Example 77b, (S)-N-(4-(4-amino-1-(1-cyclopropylethyl)-7-oxo-6,7-dihydro-1H-pyrazolo[3,4-d]pyridazin-3-yl)benzyl)-5-fluoro-2-methoxybenzamide] | 1 nM
COc1ccc(F)cc1C(=O)NCc1ccc(-c2nn(C(CO)C(F)(F)F)c3c(=O)[nH]nc(N)c23)cc1 (stereo not drawn) [Example 78, N-(4-(4-amino-7-oxo-1-(1,1,1-trifluoro-3-hydroxypropan-2-yl)-6,7-dihydro-1H-pyrazolo[3,4-d]pyridazin-3-yl)benzyl)-5-fluoro-2-methoxybenzamide] | 26 nM
COc1cc(F)c(F)cc1C(=O)NCc1ccc(-c2cn(C3CCCC3)c3c(=O)[nH]nc(N)c23)cc1 [Example 79, N-(4-(4-amino-1-cyclopentyl-7-oxo-6,7-dihydro-1H-pyrrolo[2,3-d]pyridazin-3-yl)benzyl)-4,5-difluoro-2-methoxybenzamide] | 50 nM
COc1ccc(F)cc1C(=O)NCc1ccc(-c2nn([C@H]3CCC[C@@H]3F)c3c(=O)[nH]nc(N)c23)cc1 [Example 80, N-(4-(4-amino-1-((1S,2S)-2-fluorocyclopentyl)-7-oxo-6,7-dihydro-1H-pyrazolo[3,4-d]pyridazin-3-yl)benzyl)-5-fluoro-2-methoxybenzamide] | 1 nM
COc1ccc(F)cc1C(=O)NCc1ccc(-c2nn(C3(CF)CC3)c3c(=O)[nH]nc(N)c23)cc1 [Example 82, N-(4-(4-amino-1-(1-(fluoromethyl)cyclopropyl)-7-oxo-6,7-dihydro-1H-pyrazolo[3,4-d]pyridazin-3-yl)benzyl)-5-fluoro-2-methoxybenzamide] | 3 nM
COc1ccc(F)cc1C(=O)NCc1ccc(-c2nn(C(C)(C)CF)c3c(=O)[nH]nc(N)c23)cc1 [Example 83, N-(4-(4-amino-1-(1-fluoro-2-methylpropan-2-yl)-7-oxo-6,7-dihydro-1H-pyrazolo[3,4-d]pyridazin-3-yl)benzyl)-5-fluoro-2-methoxybenzamide] | 46 nM
COc1ccc(F)cc1C(=O)NCc1ccc(-c2nn(C3(C(F)F)CC3)c3c(=O)[nH]nc(N)c23)cc1 [Example 84, N-(4-(4-amino-1-(1-(difluoromethyl)cyclopropyl)-7-oxo-6,7-dihydro-1H-pyrazolo[3,4-d]pyridazin-3-yl)benzyl)-5-fluoro-2-methoxybenzamide] | 4 nM
COc1ccc(F)cc1C(=O)NCc1ccc(-c2nn(C(C)(C)C(F)F)c3c(=O)[nH]nc(N)c23)cc1 [Example 85, N-(4-(4-amino-1-(1,1-difluoro-2-methylpropan-2-yl)-7-oxo-6,7-dihydro-1H-pyrazolo[3,4-d]pyridazin-3-yl)benzyl)-5-fluoro-2-methoxybenzamide] | 18 nM
COc1ccc(F)cc1C(=O)NCc1ccc(-n2nc(C3CCCO3)c3c(=O)[nH]nc(N)c32)cc1 (stereo not drawn) [Example 86, N-(4-(7-amino-4-oxo-3-(tetrahydrofuran-2-yl)-4,5-dihydro-1H-pyrazolo[3,4-d]pyridazin-1-yl)benzyl)-5-fluoro-2-methoxybenzamide] | 90 nM
COc1ccc(F)cc1C(=O)NCc1ccc(-c2nn(C3(C(F)(F)F)CC3)c3c(=O)[nH]nc(N)c23)cc1 [Example 87, N-(4-(4-amino-7-oxo-1-(1-(trifluoromethyl)cyclopropyl)-6,7-dihydro-1H-pyrazolo [3,4-d]pyridazin-3-yl)benzyl)-5-fluoro-2-methoxybenzamide] | 4 nM
COc1ccc(F)cc1C(=O)NCc1ccc(-c2nn([C@@H](CF)C3CC3)c3c(=O)[nH]nc(N)c23)cc1 [Example 88, (R)-N-(4-(4-amino-1-(1-cyclopropyl-2-fluoroethyl)-7-oxo-6,7-dihydro-1H-pyrazolo[3,4-d]pyridazin-3-yl)benzyl)-5-fluoro-2-methoxybenzamide] | 1 nM
